Experimental data reported in patent US5081117A (priority 1989, dated 1992).
Where a name gives a salt, the structure may show the parent alone.

Each molecule was assayed against T1, acetylcholinesterase (AChE), rat striatum (Rattus norvegicus, UniProt P37136) (assay: In vitro inhibition of acetylcholinesterase activity in rat striatum (modified Ellman method)).
T1 construct: corpora striata dissected free, weighed and homogenized in 19 volumes; from tissue; host or cells: homogenate of corpora striata of male Wistar rats
T1 sequence (P37136 32-614): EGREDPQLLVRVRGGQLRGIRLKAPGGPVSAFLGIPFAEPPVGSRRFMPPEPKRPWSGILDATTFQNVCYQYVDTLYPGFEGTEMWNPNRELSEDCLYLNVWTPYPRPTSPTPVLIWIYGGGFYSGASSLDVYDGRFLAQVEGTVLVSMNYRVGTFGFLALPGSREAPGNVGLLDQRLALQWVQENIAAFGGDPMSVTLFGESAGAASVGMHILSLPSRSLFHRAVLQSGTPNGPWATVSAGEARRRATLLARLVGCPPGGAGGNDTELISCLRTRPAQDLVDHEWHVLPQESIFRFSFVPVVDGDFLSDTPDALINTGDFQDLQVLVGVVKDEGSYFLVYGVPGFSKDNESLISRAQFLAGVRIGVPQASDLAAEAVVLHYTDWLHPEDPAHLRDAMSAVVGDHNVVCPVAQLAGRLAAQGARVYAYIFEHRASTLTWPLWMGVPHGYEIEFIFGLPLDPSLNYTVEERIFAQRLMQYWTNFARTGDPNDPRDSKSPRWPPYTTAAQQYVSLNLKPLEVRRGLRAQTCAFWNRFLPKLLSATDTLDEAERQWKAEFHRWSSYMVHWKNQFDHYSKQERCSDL
Type: biochemical, Male Wistar rats
Excerpt: Cholinesterases are found throughout the body, both in the brain and in serum. However, only brain acetylcholinesterase (AChE) distribution is correlated with central cholinergic innervation. […] We have determined in vitro inhibition of acetylcholinesterase activity in rat striatum according to the method described below.
In Vitro Inhibition of Acetylcholinesterase Activity in Rat Striatum
The method described below was used in this invention for assaying anticholinesterase activity. This is a modification of the method of Ellman et al., Biochem. Pharmacol. 7, 88 (1961).
1. 0.05M Phopsphate buffer, pH 7.2
(a) 6.85 g NaH2 PO4 .cndot.H2 O/100 ml distilled H2 O
(c) add (a) to (b) until pH reaches 7.2
(a) 9.9 mg 5,5-dithiobisnitrobenzoic acid (DTNB) (0.25 mM)
(b) 99 mg s-acetylthiocholine chloride (5 mM)
(c) q.s. to 100 ml with 0.05M phosphate buffer, pH 7.2 (reagent 1)
3. For most assays, a 2 mM stock solution of the test drug is made up in a suitable solvent and serially diluted such that the final concentration in the preincubation step ranges from 10^-3 to 10^-6 M. Different concentrations may be used depending on the potency of the drug.
Male Wistar rats are decapitated, brains rapidly removed, corpora striata dissected free, weighed and homogenized in 19 volumes (approximately 7 mg protein/ml) of 0.05M phosphate buffer, pH 7.2 using a Potter-Elvehjem homogenizer. A 50 microliter aliquot of the homogenate is added to 50 microliter vehicle of various concentrations of the test drug and preincubated for 10 minutes at room temperature.
1. For routine IC50 determinations the Abbott Bichromatic Analyzer, ABA-100, is used to determine acetylcholinesterase activity.
Incubation temperature: 30° C.
Reaction direction: down:endpoint
Syringe plate: 1:101 dilution
Following the 10 minute preincubation of the tissue (enzyme) with the inhibitor, the samples are mixed with the substrate chromogen buffer by the ABA-100. Using the indicated instrument settings the ABA-100 automatically reads the color reaction and prints out the results in enzyme units after 15 minutes.
2. The enzyme activity can also be measured with a Gilford 250 spectrophotometer. This method is used for more accurate kinetic measurements.
Reagents are added to the reference and sample side of a split curvette as follows:
The unhibited activity of the enzyme (tissue homogenate) is first determined. Test drugs are made up in a suitable solvent and added in suitable dilutions to the buffer vehicle. The reaction rate is determined by the slope of the recorded absorbance change. The actual rate (moles/liter/min) can be calculated as described in the following formula
rate (moles/liter/min)=slope/(1.36×10^4)

| SMILES | IC50 [µM] |
| --- | --- |
| CN1CC[C@@]2(C)c3c(OC(=O)NC4CCCCC4)cccc3N(C)[C@@H]12 (relative stereo) [cis-(±)-1,2,3,3a,8,8a-Hexahydro-1,3a,8-trimethylpyrrolo[2,3-b]indol-4-ylcyclohexyl carbamate fumarate] | 0.55 |
| CNC(=O)Oc1cccc2c1[C@]1(C)CCN(C)[C@@H]1N2C (relative stereo) [cis-(±)-1,2,3,3a,8,8a-Hexahydro-1,3a,8-trimethylpyrrolo[2,3-b]indol-4-ylmethylcarbamate fumarate] | 0.06 |
| CN1CC[C@@]2(C)c3ccc(OC(=O)NC4CCCCC4)cc3N(C)[C@@H]12 (relative stereo) [cis-(±)-1,2,3,3a,8,8a-Hexahydro-1,3a,8-trimethylpyrrolo[2,3-b]indol-6-ylcyclohexyl carbamate salicylate] | 5.5 |
| CNC(=O)Oc1ccc2c(c1)N(C)[C@H]1N(C)CC[C@@]21C (relative stereo) [cis-(±)-1,2,3,3a,8,8a-Hexahydro-1,3a,8-trimethylpyrrolo[2,3-b]indol-6-ylmethylcarbamate salicylate] | 0.23 |
| CNC(=O)Oc1cc2c(cc1Br)[C@]1(C)CCN(C)[C@@H]1N2C (relative stereo) [cis-(±)-5-Bromo-1,2,3,3a,8,8a-hexahydro-1,3a,8-trimethylpyrrolo[2,3-b]indol-6-yl methyl carbamate sesquifumarate] | 0.013 |
